Source: US11986532B2 (Arvinas Operations, Inc., priority 2021, dated 2024)
Where two headings read alike, the source gives them in different places.

Target: T1, BCL6 (Homo sapiens, UniProt P41182)
T1 construct: endogenous in cells; host or cells: T47D breast cancer epithelial cells
Assay: Immunofluorescence protocol for high content imaging of BCL6 (degradation) in T47D cells, 3 days compound treatment
Format: cell-based
Details: for Dmax: read-out: Mean Dmax (%)** category; for DC50: read-out: Mean DC50 (nM)* category
In short: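 For degradation, compound series (3-fold, 11 points, top 0.1 or 1 μM final) were added to adherent T47D cultures for 3 days. BCL6 immunostaining used a rabbit antibody at 1:300 and an Alexa-488 secondary, with imaging at 10× magnification.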

[1] = T47D cells, 3 days compound treatment

Row | Compound | Dmax (T47D) [%] | DC50 [nM] | DC50 [1] [nM] | Dmax [1] [%]
1 | CNC(=O)COc1cc2cc(Nc3nc(N4CCC(O[C@H]5C[C@H](N6CC7(CCN(c8ccc9c(c8)C(=O)N(C8CCC(=O)NC8=O)C9=O)CC7)C6)C5)CC4)ncc3Cl)ccc2n(C(C)C)c1=O (stereo partly shown) [Compound 365, 2-({6-[(5-chloro-2-{4-[(1r,3r)-3-{7-[2-(2,6-dioxopiperidin-3-yl)-1,3-dioxo-2,3-dihydro-1H-isoindol-5-yl]-2,7-diazaspiro [3.5]nonan-2-yl}cyclobutoxy]piperidin-1-yl}pyrimidin-4-yl)amino]-2-oxo-1-(propan-2-yl)-1,2-dihydroquinolin-3-yl}oxy)-N-methylacetamide] | 50 to 70 | < 10 |  | 
2 | CNC(=O)COc1cc2cc(Nc3nc(N4CCC(CN5CCC6(CCN(c7ccc8c(c7)CN(C7CCC(=O)NC7=O)C8=O)C6)C5=O)CC4)ncc3Cl)ccc2n(C(C)C)c1=O (stereo not shown) [Compound 60, 2-{[6-({5-chloro-2-[4-({7-[2-(2,6-dioxopiperidin-3-yl)-1-oxo-2,3-dihydro-1H-isoindol-5-yl]-1-oxo-2,7-diazaspiro[4.4]nonan-2-yl}methyl)piperidin-1-yl]pyrimidin-4-yl}amino)-2-oxo-1-(propan-2-yl)-1,2-dihydroquinolin-3-yl]oxy}-N-methylacetamide] |  |  | < 10 | 50 to 70
3 | CNC(=O)COc1cc2cc(Nc3nc(N4CCC(O[C@H]5C[C@H](N6CC7(CCN(c8ccc9c(c8)C(=O)N(C8CCC(=O)NC8=O)C9=O)C7)C6)C5)CC4)ncc3Cl)ccc2n(C(C)C)c1=O (stereo partly shown) [Compound 350, 2-({6-[(5-chloro-2-{4-[(1r,3r)-3-{6-[2-(2,6-dioxopiperidin-3-yl)-1,3-dioxo-2,3-dihydro-1H-isoindol-5-yl]-2,6-diazaspiro [3.4]octan-2-yl}cyclobutoxy]piperidin-1-yl}pyrimidin-4-yl)amino]-2-oxo-1-(propan-2-yl)-1,2-dihydroquinolin-3-yl}oxy)-N-methylacetamide] | ≥ 70 | < 10 |  | 
4 | CNC(=O)COc1cc2cc(Nc3nc(N4CCC(O[C@H]5C[C@H](N6CCN(c7ccc8c(c7F)CN(C7CCC(=O)NC7=O)C8=O)C[C@H]6C)C5)CC4)ncc3Cl)ccc2n(C(C)C)c1=O (stereo partly shown) [Compound 182] |  |  | < 10 | ≥ 70
5 | CNC(=O)COc1cc2cc(Nc3nc(N4CCC(O[C@H]5C[C@H](N6CCC(c7ccc8c(c7F)CN(C7CCC(=O)NC7=O)C8=O)CC6)C5)CC4)ncc3Cl)ccc2n(CC(C)C)c1=O (stereo partly shown) [Compound 425, 2-({6-[(5-chloro-2-{4-[(1r,3r)-3-{4-[2-(2,6-dioxopiperidin-3-yl)-4-fluoro-1-oxo-2,3-dihydro-1H-isoindol-5-yl]piperidin-1-yl}cyclobutoxy]piperidin-1-yl}pyrimidin-4-yl)amino]-1-(2-methylpropyl)-2-oxo-1,2-dihydroquinolin-3-yl}oxy)-N-methylacetamide] | ≥ 70 | < 10 |  | 
6 | CNC(=O)COc1cc2cc(Nc3nc(N4CCC(F)(CN5CCC6(CC5)CN(c5cccc7c5CN(C5CCC(=O)NC5=O)C7=O)C6)CC4)ncc3Cl)ccc2n(C(C)C)c1=O (stereo not shown) [Compound 52, 2-{[6-({5-chloro-2-[4-({2-[2-(2,6-dioxopiperidin-3-yl)-1-oxo-2,3-dihydro-1H-isoindol-4-yl]-2,7-diazaspiro[3.5]nonan-7-yl}methyl)-4-fluoropiperidin-1-yl]pyrimidin-4-yl}amino)-2-oxo-1-(propan-2-yl)-1,2-dihydroquinolin-3-yl]oxy}-N-methylacetamide] |  |  | < 10 | ≥ 70
7 | CNC(=O)COc1cc2cc(Nc3nc(N4CCC(CN5CCC6(CC5)CN(c5cc7c(cc5F)C(=O)N(C5CCC(=O)NC5=O)C7)C6)CC4)ncc3Cl)ccc2n(C(C)C)c1=O (stereo not shown) [Compound 64, 2-{[6-({5-chloro-2-[4-({2-[2-(2,6-dioxopiperidin-3-yl)-6-fluoro-1-oxo-2,3-dihydro-1H-isoindol-5-yl]-2,7-diazaspiro[3.5]nonan-7-yl}methyl)piperidin-1-yl]pyrimidin-4-yl}amino)-2-oxo-1-(propan-2-yl)-1,2-dihydroquinolin-3-yl]oxy}-N-methylacetamide] |  |  | < 10 | 50 to 70
8 | CNC(=O)COc1cc2cc(Nc3nc(N4CCC(O[C@H]5C[C@H](N6CCC(c7ccc8c(c7F)CN(C7CCC(=O)NC7=O)C8=O)C(C)(C)C6)C5)CC4)ncc3Cl)ccc2n(C(C)C)c1=O (stereo partly shown) [Compound 187, 2-({6-[(5-chloro-2-{4-[(1r,3r)-3-{4-[2-(2,6-dioxopiperidin-3-yl)-4-fluoro-1-oxo-3H-isoindol-5-yl]-3,3-dimethylpiperidin-1-yl}cyclobutoxy]piperidin-1-yl}pyrimidin-4-yl)amino]-1-isopropyl-2-oxoquinolin-3-yl}oxy)-N-methylacetamide] |  |  | < 10 | ≥ 70
